Results published in a melting point compilation (Tetko et al.; mined from patent text by program, amines drawn as free bases though some values may be those of a salt).

Row | Compound | melting point
1 | CCCCCCCCSc1ccc(CC(COC(C)=O)(COC(C)=O)NC(C)=O)cc1 | 71 to 74 °C
2 | CCOC(=O)C1=C(C)NC(O)(c2cccc(Cl)c2)C(C(=O)OCC)C1c1cccc([N+](=O)[O-])c1 (stereo not drawn) | 212 to 214 °C
3 | Nc1ccc(F)c(CO)c1 | 80 to 84 °C
4 | CN(C)C(=O)CC1=C(n2nc(-c3c(-c4ccccc4)nn4ccccc34)ccc2=O)CCCC1 | 80 to 81 °C
5 | Cc1c(NC(=O)c2ccc(OC[C@@H]3CCCO3)cc2)ccc2cc(CNC3CCOCC3)cnc12 | 158 to 159 °C
6 | CC(=O)OCC1OC(SCC#N)C(OC(C)=O)C(OC(C)=O)C1OC(C)=O (stereo not drawn) | 97 °C
7 | NN1CCN(CC(O)c2c[nH]c3ccccc23)CC1 (stereo not drawn) | 174 to 177 °C
8 | COc1cc(-n2cccn2)ccc1-n1cc(OC)c(=O)c(-c2ccnn2-c2cccc(C(F)(F)F)c2)n1 | 215 to 217 °C
9 | CCOC(=O)c1cc(-c2cccc(C(F)(F)F)c2)c(OCCO)c(-c2cccc(C(F)(F)F)c2)c1 | 154 to 158 °C
10 | O=C(c1cccc(Cl)c1)N1CCc2cc(S(=O)(=O)N3CC(c4ccccc4)NC3=O)ccc21 (stereo not drawn) | 132 to 136 °C
11 | OCC(CO)C1c2ccccc2-c2ccccc21 | 101 °C
12 | CCCCCCCCCCCCCCCCCCOc1ccc(OCc2ccccc2)c(C(=O)N(CC(=O)O)CC(=O)O)c1 | 81 to 83 °C
13 | CCOC(=O)CCc1cc(C(=O)c2cccc(C(=O)OCC)c2)ccc1/C=C\CCCCO | 48 to 50 °C
14 | CC1=NN(C(=O)NS(=O)(=O)N(C)S(=O)(=O)N(C)C)C(c2cccs2)C1 (stereo not drawn) | 112 to 113 °C
15 | CC(C)(C)c1nc(-c2ccc(F)cc2)c(-c2ccc(S(C)(=O)=O)cc2)o1 | 130 to 131 °C
16 | COc1ccc(/C(C)=C/c2ccc(C(=O)O)cc2)cc1C1(C)CCCCC1 | 175 to 176 °C
17 | Nc1nc(O)c2cc(CN(CCF)c3ccc(C(=O)N[C@@H](CCC(=O)O)C(=O)O)cc3)ccc2n1 | > 350 °C
18 | CN(C)CCCOc1ccccc1CC(=O)O | 98 °C
19 | COc1ccc(Cl)c([N+](=O)[O-])c1Cl | 97 to 99 °C

Row | Compound | melting point
20 | CC(C)OC(=O)C(C)Oc1ncn(-c2cccc(C(F)(F)F)c2)n1 (stereo not drawn) | 97 to 99 °C
21 | CCS(=O)(=O)/C=C/c1ccc2[nH]cc(C3CCN(C)CC3)c2c1 | 98 to 102 °C
22 | CCCCCCCCCCCCCCOc1ccc(CC(=O)NCc2ccccn2)cc1 | 86 to 87 °C
23 | COc1ccc(F)cc1C(C)(C)CC(O)(CN1CC(=O)Nc2ccccc21)C(F)(F)F (stereo not drawn) | 69 to 71 °C
24 | O=S(=O)(c1ccc(Cl)cc1)c1ccc(NCc2nnn[nH]2)cc1 | 102 to 105 °C
25 | NC/C=C/COc1ccc(-n2ccnc2)cc1 | 81 to 83 °C
26 | O=[N+]([O-])c1ccc(CN2CCNS2(=O)=O)cc1 | 115 to 117 °C
27 | COc1ccc(C2=NN(C3CCN(S(=O)(=O)c4ccc(Cl)cc4)CC3)C(=O)CC2)cc1OC | 185 to 186 °C
28 | Nc1ccc(CCOC(=O)Nc2ccc(Nc3ccccc3)cc2)cc1 | 140 °C
29 | Clc1ccccc1OCC1(c2ccccc2)CCN(Cc2ccccc2)CCO1 (stereo not drawn) | 114 to 115 °C
30 | NS(=O)(=O)c1ccc(-c2cccc(-c3nc(-c4ccc(C(F)(F)F)cc4)cc(C(F)(F)F)n3)c2)s1 | 204 °C
31 | O=C1CCC(N2Cc3cc(CNC(=O)N4CCOCC4)ccc3C2=O)C(=O)N1 (stereo not drawn) | 208 to 210 °C
32 | CC(=O)NCC1CN(c2ccc(N3CCN(C(=O)COC(=O)CO)CC3)c(F)c2)C(=O)O1 (stereo not drawn) | 105 to 107 °C
33 | Fc1cc(-n2cnnn2)ccc1-c1ccc2oc(C3CCNCC3)nc2c1 | 148 to 151 °C
34 | CCCCCCCNC(=O)CCCCSc1nc(-c2ccccc2)c(-c2ccccc2)[nH]1 | 104 to 106 °C
35 | CCOCOC(=O)c1c(I)cc(I)c(NC(C)=O)c1I | 174 to 178 °C
36 | NS(=O)(=O)c1cccc(-c2cccc(-c3nc(-c4ccc(Cl)cc4Cl)cc(C(F)(F)F)n3)c2)c1 | 202 °C
37 | N#Cc1ccc(C2C(=O)N(CC3CC3)Cc3cncn32)cc1 (stereo not drawn) | 146 to 147 °C
38 | c1cc(-n2cnnn2)ccc1SCN1CCOCC1 | 118 to 121 °C
